# Target: PrP (Mesocricetus auratus, UniProt P04273)
# Assay type: binding, hamster
# Sequence of PrP (P04273 23-231 limits assumed): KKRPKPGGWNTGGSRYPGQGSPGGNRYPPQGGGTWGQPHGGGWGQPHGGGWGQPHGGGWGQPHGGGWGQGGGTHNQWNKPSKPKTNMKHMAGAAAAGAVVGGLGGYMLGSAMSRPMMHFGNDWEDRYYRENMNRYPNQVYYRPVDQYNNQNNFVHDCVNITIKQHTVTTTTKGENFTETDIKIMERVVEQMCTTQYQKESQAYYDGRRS
compound,measurement,setting,value
Nc1c(/N=N/c2ccc(-c3ccc(/N=N/c4cc(S(=O)(=O)O)c5ccccc5c4N)cc3)cc2)cc(S(=O)(=O)O)c2ccccc12 [Congo red],inhibition of binding of PrP to RADA,Congo red pre-incubated with PrP before RADA exposure,dose-dependent inhibition
same,Congo red concentration with significant inhibition of PrP binding,"Congo red pre-incubation with PrP, Mann-Whitney",1 µM
same,inhibition of binding of PrP,RADA pre-incubated with Congo red before or after plate binding,ineffective
